From ChEMBL document CHEMBL4346677, “Compounds based on 5-(perylen-3-ylethynyl)uracil scaffold: High activity against tick-borne encephalitis virus and non-specific activity against enterovirus A” (Eur J Med Chem, 2019) come the findings set out here.

Data set [1] relates to Echovirus. The data set is described as follows: Antiviral activity against Echovirus 30 isolate 48461. The format is functional, organism-based.
Data set [2] has as its system Enterovirus A71. The data set is described as follows: Antiviral activity against Enterovirus A71 isolate 46973 infected in human RD cells assessed as reduction in virus induced cytopathic effect preincubated with viral suspension for 1 hr followed by cell addition measured after 5 to 7 days. The class given is functional, organism-based. On the technique in general: Protection from cytopathic effect is a common read-out in antiviral testing.

Data set [3] deals with Poliovirus 1. Description: Antiviral activity against poliovirus type 1 sabin 1. The format is functional, organism-based.
Data set [4] is described as follows: Cytotoxicity against PEK cells assessed as reduction in cell viability after 7 days by microscopic method. The format is cell-based, Sus scrofa. The following applies: pig.
Data set [5] can be described thus: Cytotoxicity against PEK cells assessed as reduction in cell viability after 24 hrs by microscopic method. Conditions: pig. The class given is cell-based, Sus scrofa.
The nature of data set [6]: Cytotoxicity against human RD cells assessed as reduction in cell viability after 24 hrs by microscopic method. The class given is cell-based.
For data set [7], the system named is Tick-borne encephalitis virus. The data set is described as follows: Antiviral activity against TBEV Absettarov infected in PEK cells assessed as plaque reduction preincubated for 1 hr followed by overlaying with 1.26% methylcellulose and measured after 6 days by gentian violet staining-based assay. The format is functional, organism-based.
The nature of data set [8]: Cytotoxicity against human RD cells assessed as reduction in cell viability after 7 days by microscopic method. The format is cell-based.
The nature of data set [9]: Cytotoxicity against African green monkey Vero cells assessed as reduction in cell viability after 7 days by microscopic method. The format is cell-based. The following applies: chlorocebus sabaeus.
The test system of data set [10] is Vero. Description: Cytotoxicity against African green monkey Vero cells assessed as formation of syncytium-like patterns of cells at 50 uM after 7 days by microscopic method. The class given is cell-based. Conditions: chlorocebus sabaeus, 168 h.
Data set [11] in a line: Cytotoxicity against PEK cells assessed as formation of syncytium-like patterns of cells at 50 uM after 7 days by microscopic method. The class given is cell-based, Sus scrofa. The following applies: pig, 168 h.
For data set [12], the system named is RD. The data set is described as follows: Cytotoxicity against human RD cells assessed as formation of syncytium-like patterns of cells at 50 uM after 7 days by microscopic method. The following applies: 168 h. The format is cell-based.
Data set [13] can be described thus: Cytotoxicity against African green monkey Vero cells assessed as reduction in cell viability after 24 hrs by microscopic method. The format is cell-based. The following applies: chlorocebus sabaeus.

Calls of active or inactive are those of the source. No cut-off for these calls is given here. A value given as a limit tells only on which side of the number the result lay.

Consider `CC(C)(C)C(=O)OCn1c(=O)c(C#Cc2ccc3c4cccc5cccc(c6cccc2c63)c54)cn(CC(=O)NC[C@H](O)C(C)(C)CO)c1=O`, for which the outcome in data set [1] and in data set [3] was inactive. In addition, the EC50 result is “Not Active” in data set [2] and 0.00079 µM in [7]. Further, the CC50 at 168 h in [4] is over 50 µM; in data set [8], 19 µM; in data set [9], over 50 µM. Moreover, the figures for the CC50 at 24 h in [5], in data set [6] and in [13] were over 50 µM, 19 µM and over 50 µM, respectively. Besides, the Activity entry in data set [10], in data set [11] and in data set [12] was “Toxic” each time.
Turning to `O=C(Cn1cc(C#Cc2ccc3c4cccc5cccc(c6cccc2c63)c54)c(=O)[nH]c1=O)NCCO`, the result in data set [1] and in data set [3] was inactive. In addition, the 50% effective concentration (EC50) result in [2] was “Not Active”; in data set [7], 0.003 µM. Moreover, the half-maximal cytotoxic concentration (CC50) at 168 h is over 50 µM in data set [4] and over 104 µM in [8]. Besides, the cytotoxic concentration (CC50) at 24 h was over 50 µM in data set [5] and over 104 µM in [6]. In addition, the Activity result in [10], in data set [11] and in [12] was “Toxic” throughout.
With `O=C(Cn1cc(C#Cc2ccc3c4cccc5cccc(c6cccc2c63)c54)c(=O)[nH]c1=O)NCCCO`, the result in [1] and in data set [3] was inactive. For the same compound, the concentration for a half-maximal effect (EC50) result in data set [2] is “Not Active”; in data set [7], 0.006 µM. Besides, the CC50 at 168 h in data set [4] was over 50 µM; in [8], over 104 µM; in data set [9] it was over 50 µM. For the same compound, the CC50 at 24 h in data set [5] was over 50 µM; in [6], over 104 µM; in data set [13], over 50 µM. The Activity entry in data set [10], in data set [11] and in data set [12] was “Toxic” in each case.
With `CCCCNC(=O)Cn1cc(C#Cc2ccc3c4cccc5cccc(c6cccc2c63)c54)c(=O)[nH]c1=O`, the result in data set [1] and in data set [3] was inactive. Further, the figures for the half-maximal effective concentration (EC50) result in data set [2] and in [7] were “Not Active” and 0.014 µM, respectively. For the same compound, the half-maximal cytotoxic concentration (CC50) at 168 h in data set [4] is over 50 µM; in data set [8], 76 µM. For the same compound, the 50% cytotoxic concentration (CC50) at 24 h was over 50 µM in [5] and 76 µM in [6]. Moreover, the Activity entry in data set [10], in data set [11] and in data set [12] was “Toxic” throughout.
On to `CC(C)(C)C(=O)OCn1c(=O)c(C#Cc2ccc3c4cccc5cccc(c6cccc2c63)c54)cn(CC(=O)NCCO)c1=O`, for which the result in data set [1] and in [3] was inactive. Also, the 50% effective concentration (EC50) result in data set [2] was “Not Active”; in data set [7], 0.0021 µM. Moreover, the results for the cytotoxic concentration (CC50) at 168 h in [4], in data set [8] and in [9] were over 50 µM, 38 µM and 38 µM, respectively. Further, the CC50 at 24 h in [5] is over 50 µM; in data set [6], 19 µM; in data set [13] it was 32 µM. Further, the Activity entry in data set [10], in [11] and in data set [12] was “Toxic” throughout.
For the compound `CC(C)(C)C(=O)OCn1c(=O)c(C#Cc2ccc3c4cccc5cccc(c6cccc2c63)c54)cn(CC(=O)NCCCCCCO)c1=O`, the result in data set [1] and in data set [3] was inactive. The EC50 entry in data set [2] was “Not Active”; in data set [7], 0.024 µM. The results for the CC50 at 168 h in data set [4], in data set [8] and in data set [9] were over 50 µM, 38 µM and over 50 µM, respectively. Moreover, the results for the half-maximal cytotoxic concentration (CC50) at 24 h in data set [5], in [6] and in [13] were over 50 µM, 19 µM and 38 µM, respectively. Moreover, the Activity entry in data set [10], in data set [11] and in data set [12] was “Toxic” throughout.
Regarding `CC(C)(C)C(=O)OCn1c(=O)c(C#Cc2ccc3c4cccc5cccc(c6cccc2c63)c54)cn(CC(=O)O)c1=O`, the result in data set [1] and in [3] was inactive. Also, the half-maximal cytotoxic concentration (CC50) at 168 h in data set [4] is over 50 µM. In data set [5], the half-maximal cytotoxic concentration (CC50) at 24 h is over 50 µM. The half-maximal effective concentration (EC50) in data set [7] came to 0.0012 µM. The Activity result in data set [10], in [11] and in data set [12] was “Toxic” in each case.
`O=C(O)Cn1cc(C#Cc2ccc3c4cccc5cccc(c6cccc2c63)c54)c(=O)[nH]c1=O`: the result in data set [1] and in [3] was inactive. In addition, the half-maximal effective concentration (EC50) result in data set [2] was “Not Active”; in data set [7] it was 0.05 µM. The CC50 at 168 h in data set [4] is over 50 µM; in data set [8], 65 µM; in data set [9], over 50 µM. The results for the half-maximal cytotoxic concentration (CC50) at 24 h in data set [5], in [6] and in [13] were over 50 µM, 61 µM and over 50 µM, respectively. In addition, the Activity entry in data set [10], in data set [11] and in data set [12] was “Toxic” in each case.
On to `O=C(Cn1cc(C#Cc2ccc3c4cccc5cccc(c6cccc2c63)c54)c(=O)[nH]c1=O)NCCCCCCO`, for which the outcome in data set [1] and in data set [3] was inactive. Moreover, the figures for the 50% effective concentration (EC50) result in data set [2] and in data set [7] were “Not Active” and 0.0061 µM, respectively. The CC50 at 168 h was over 50 µM in data set [4], 38 µM in [8] and over 50 µM in [9]. Also, the figures for the half-maximal cytotoxic concentration (CC50) at 24 h in data set [5], in [6] and in data set [13] were over 50 µM, 19 µM and 38 µM, respectively. Further, the Activity entry in [10], in data set [11] and in data set [12] was “Toxic” throughout.
As for `CCCCNC(=O)Cn1cc(C#Cc2ccc3c4cccc5cccc(c6cccc2c63)c54)c(=O)n(COC(=O)C(C)(C)C)c1=O`, the result in [1] and in data set [3] was inactive. The figures for the EC50 result in [2] and in data set [7] were “Not Active” and 0.054 µM, respectively. Besides, the CC50 at 168 h in data set [4] is over 50 µM; in [8], 10 µM; in data set [9], over 50 µM. Moreover, the values for the 50% cytotoxic concentration (CC50) at 24 h in [5], in data set [6] and in data set [13] were over 50 µM, 38 µM and over 50 µM, respectively. Also, the Activity entry in [10], in [11] and in data set [12] was “Toxic” throughout.
For `O=C(Cn1cc(C#Cc2ccc3c4cccc5cccc(c6cccc2c63)c54)c(=O)[nH]c1=O)N(CCO)CCO`, the outcome in data set [1] and in data set [3] was inactive. For the same compound, the figures for the EC50 result in [2] and in [7] were “Not Active” and 0.007 µM, respectively. Also, the half-maximal cytotoxic concentration (CC50) at 168 h in [4] is over 50 µM; in data set [8], over 104 µM; in [9], over 50 µM. Besides, the half-maximal cytotoxic concentration (CC50) at 24 h in data set [5] was over 50 µM; in data set [6], over 104 µM; in data set [13], over 50 µM. Further, the Activity result in data set [10], in data set [11] and in data set [12] was “Toxic” in each case.

As usually defined, the EC50 is the concentration needed to bring the measured effect to its halfway point. In general, CC50 refers to the concentration at which the toxic effect on the cells reaches its halfway point.
